# Test system: T1, EpGT60
# T1 construct: not anchored to any chromosome
# Test: UPLC of rhamnosylated product, GraphPad Prism fit
# Type: biochemical, Epimedium pubescens
# Conditions: 4 mM UDP-rhamnose, 1 mM DTT, 50 mM Tris-HCl pH 7.0, 30 °C, 1 h; substrate 100-500 μM
structure (smiles),measurement,value
CC(C)=CCc1c(O)cc(O)c2c(=O)c(O)c(-c3ccc(O)cc3)oc12 [8-prenylkaempferol],Km,289 µM

# From PMC9372747, “Genome-wide analysis of UGT gene family identified key gene for the biosynthesis of bioactive flavonol glycosides in Epimedium pubescens Maxim” (Synthetic and Systems Biotechnology, 2022)
